Results on 17 molecules are retold here after PubChem BioAssay AID248 (DTP/NCI, 2004).

The subject of this assay is L1210 leukemia ip in BDF1 mice, survival T/C. Nature of the assay: NCI In Vivo Anticancer Drug Screen. Data for tumor model L1210 Leukemia (intraperitoneal) in B6D2F1 (BDF1) mice. The settings on record: endpoint: mean survival time, higher = longer survival. In short, it runs like this: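 Antitumor effect is assessed in tumor-bearing animals. Survival in the compound arm is compared with a vehicle-dosed control arm and expressed as their quotient.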

Setting [1] is: dose: 100.0 mg/kg/injection, schedule: Q04DX003 (ip), vehicle: saline with Tween-80.
Where [2] appears, read: dose: 200.0 mg/kg/injection, schedule: Q04DX003 (ip), vehicle: saline with Tween-80.
Setting [3] is: dose: 100.0 mg/kg/injection, schedule: Q01DX009 (ip), vehicle: saline with Tween-80.
Where [4] appears, read: dose: 200.0 mg/kg/injection, schedule: Q01DX009 (ip), vehicle: saline with Tween-80.
Setting [5] is: dose: 400.0 mg/kg/injection, schedule: Q01DX009 (ip), vehicle: saline with Tween-80.
Setting [6] is: dose: 100.0 mg/kg/injection, schedule: Q01DX009 (ip), vehicle: Klucel (hydroxypropylcellulose) (HPC).
Setting [7] is: dose: 100.0 mg/kg/injection, schedule: Q04DX003 (ip), vehicle: Klucel (hydroxypropylcellulose) (HPC).
Setting [8] is: dose: 200.0 mg/kg/injection, schedule: Q04DX003 (ip), vehicle: Klucel (hydroxypropylcellulose) (HPC).
Setting [9] is: dose: 400.0 mg/kg/injection, schedule: Q04DX003 (ip), vehicle: Klucel (hydroxypropylcellulose) (HPC).

Values joined by “and” are separate entries in the source; they are usually repeats but may differ in a detail not shown here. Equal values may be shown once. Toxic doses and inconclusive results are not listed.

Turning to `CCC1(CC)N=C2OCCN2C1=O`, the T/C by setting is: (dose: 12.5 mg/kg/injection, schedule: Q04DX003 (ip), vehicle: saline with Tween-80) 97 % of control; (dose: 25.0 mg/kg/injection, schedule: Q04DX003 (ip), vehicle: saline with Tween-80) 95 % of control; (dose: 50.0 mg/kg/injection, schedule: Q04DX003 (ip), vehicle: saline with Tween-80) 97 % of control; under setting [1], 94 % of control; under setting [2], 91 % of control and 92 % of control; (dose: 300.0 mg/kg/injection, schedule: Q04DX003 (ip), vehicle: saline with Tween-80) 106 % of control.
In the case of `CCC1N(C)CCCN1C`, the T/C under setting [1] is 97 % of control and the T/C under setting [2] is 95 % of control.
On to `CCCCS(=O)(=O)N1CC(C)OC(C)C1` (stereo not drawn), for which the T/C reads like this: (dose: 100.0 mg/kg/injection, schedule: Q04DX002 (ip), vehicle: Klucel (hydroxypropylcellulose) (HPC)) 97 % of control; (dose: 200.0 mg/kg/injection, schedule: Q04DX002 (ip), vehicle: Klucel (hydroxypropylcellulose) (HPC)) 108 % of control; (dose: 400.0 mg/kg/injection, schedule: Q04DX002 (ip), vehicle: Klucel (hydroxypropylcellulose) (HPC)) 97 % of control.
For `O=P(O)(c1ccccc1)c1cccc(Cl)c1`, the T/C under setting [1] was 100 % of control; the T/C under setting [2] is 91 % of control; the T/C (dose: 400.0 mg/kg/injection, schedule: Q04DX003 (ip), vehicle: saline with Tween-80) is 94 % of control.
In the case of `C/C(CC(C)C)=N\NC(=O)Nc1ccc(Cl)c(Cl)c1`, the T/C under setting [3] was 100 % of control and 112 % of control; the T/C (dose: 100.0 mg/kg/injection, schedule: Q04DX002 (ip), vehicle: saline) is 94 % of control and 106 % of control; the T/C (dose: 100.0 mg/kg/injection, schedule: Q04DX003 (ip), vehicle: saline) was 92 % of control; the T/C under setting [4] was 101 % of control and 112 % of control; the T/C (dose: 200.0 mg/kg/injection, schedule: Q04DX002 (ip), vehicle: saline) was 93 % of control and 105 % of control; the T/C (dose: 200.0 mg/kg/injection, schedule: Q04DX003 (ip), vehicle: saline) is 95 % of control. Further, the T/C under setting [5] was 101 % of control and 106 % of control; the T/C (dose: 400.0 mg/kg/injection, schedule: Q04DX002 (ip), vehicle: saline) was 95 % of control and 105 % of control; the T/C (dose: 400.0 mg/kg/injection, schedule: Q04DX003 (ip), vehicle: saline) was 113 % of control.
In the case of `Nc1ccc(C(=O)Nc2cccc(S(=O)(=O)F)c2)cc1`, the T/C is, setting by setting: (dose: 100.0 mg/kg/injection, schedule: Q01DX001 (ip), vehicle: saline) 107 % of control; (dose: 200.0 mg/kg/injection, schedule: Q01DX001 (ip), vehicle: saline) 106 % of control; (dose: 400.0 mg/kg/injection, schedule: Q01DX001 (ip), vehicle: saline) 90 % of control.
Regarding `CC(=O)OC(C)(C)Cc1ccccc1`, the T/C runs as follows: under setting [3], 90 % of control; under setting [4], 108 % of control.
As for `O=[N+]([O-])c1cc([As](=O)(O)O)ccc1Cl`, the T/C reads like this: (dose: 50.0 mg/kg/injection, schedule: Q01DX009 (ip), vehicle: Klucel (hydroxypropylcellulose) (HPC)) 97 % of control; under setting [6], 97 % of control; under setting [7], 100 % of control; under setting [8], 104 % of control.
For `COc1ccccc1C(Cc1ccc(N2C(N)=NC(N)=NC2(C)C)cc1)C(=O)Nc1ccc(S(=O)(=O)F)cc1` (stereo not drawn), the T/C is, setting by setting: (dose: 100.0 mg/kg/injection, schedule: Q01DX001 (ip), vehicle: Klucel (hydroxypropylcellulose) (HPC)) 101 % of control; (dose: 200.0 mg/kg/injection, schedule: Q01DX001 (ip), vehicle: Klucel (hydroxypropylcellulose) (HPC)) 101 % of control; (dose: 400.0 mg/kg/injection, schedule: Q01DX001 (ip), vehicle: Klucel (hydroxypropylcellulose) (HPC)) 99 % of control.
With `COc1cc2c(cc1OC)N=Cc1cccn1C2`, the T/C (dose: 25.0 mg/kg/injection, schedule: Q04DX002 (ip), vehicle: saline with Tween-80) was 94 % of control; the T/C (dose: 50.0 mg/kg/injection, schedule: Q04DX002 (ip), vehicle: saline with Tween-80) is 97 % of control; the T/C (dose: 100.0 mg/kg/injection, schedule: Q04DX002 (ip), vehicle: saline with Tween-80) is 90 % of control.
`O=C(C=C(C(F)(F)F)C(F)(F)F)c1ccccc1[N+](=O)[O-]`: the T/C runs as follows: (dose: 6.25 mg/kg/injection, schedule: Q01DX009 (ip), vehicle: other) 96 % of control; (dose: 12.5 mg/kg/injection, schedule: Q01DX009 (ip), vehicle: other) 102 % of control; (dose: 25.0 mg/kg/injection, schedule: Q01DX009 (ip), vehicle: other) 102 % of control.
Consider `COc1ccc(NC(=O)N(CCCl)N=O)cc1`, for which the T/C (dose: 0.12 mg/kg/injection, schedule: Q01DX Z (ip), vehicle: carboxymethylcellulose (CMC)) is 112 % of control; the T/C (dose: 1.25 mg/kg/injection, schedule: Q01DX Z (ip), vehicle: carboxymethylcellulose (CMC)) is 123 % of control; the T/C (dose: 4.4 mg/kg/injection, schedule: Q01DX015 (ip), vehicle: saline) is 200 % of control; the T/C (dose: 4.4 mg/kg/injection, schedule: Q01DX Z (ip), vehicle: carboxymethylcellulose (CMC)) was 192 % of control; the T/C (dose: 5.0 mg/kg/injection, schedule: Q01DX Z (ip), vehicle: carboxymethylcellulose (CMC)) is 160 % of control; the T/C (dose: 6.6 mg/kg/injection, schedule: Q01DX015 (ip), vehicle: saline) is 224 % of control. Besides, the T/C reads like this: (dose: 6.6 mg/kg/injection, schedule: Q01DX Z (ip), vehicle: carboxymethylcellulose (CMC)) 222 % of control; (dose: 9.9 mg/kg/injection, schedule: Q01DX001 (ip), vehicle: carboxymethylcellulose (CMC)) 160 % of control; (dose: 10.0 mg/kg/injection, schedule: Q01DX015 (ip), vehicle: saline) 196 % of control; (dose: 10.0 mg/kg/injection, schedule: Q01DX Z (ip), vehicle: carboxymethylcellulose (CMC)) 187 % of control; (dose: 15.0 mg/kg/injection, schedule: Q01DX015 (ip), vehicle: saline) 195 % of control; (dose: 15.0 mg/kg/injection, schedule: Q01DX Z (ip), vehicle: carboxymethylcellulose (CMC)) 120 % of control. Moreover, the T/C was 166 % of control (dose: 19.8 mg/kg/injection, schedule: Q01DX001 (ip), vehicle: carboxymethylcellulose (CMC)); 93 % of control (dose: 20.0 mg/kg/injection, schedule: Q01DX Z (ip), vehicle: carboxymethylcellulose (CMC)); 206 % of control (dose: 39.6 mg/kg/injection, schedule: Q01DX001 (ip), vehicle: carboxymethylcellulose (CMC)); 158 % of control (dose: 60.0 mg/kg/injection, schedule: Q01DX001 (ip), vehicle: saline); 105 % of control (dose: 79.2 mg/kg/injection, schedule: Q01DX001 (ip), vehicle: carboxymethylcellulose (CMC)); 111 % of control (dose: 120.0 mg/kg/injection, schedule: Q01DX001 (ip), vehicle: saline). Besides, where the note is “dose: 240.0 mg/kg/injection, schedule: Q01DX001 (ip), vehicle: saline”, the T/C is 156 % of control.
As for `O=C(CCN1CC1)Oc1ccc(Cl)cc1`, the T/C (dose: 100.0 mg/kg/injection, schedule: Q01DX001 (ip), vehicle: saline with Tween-80) was 97 % of control; the T/C (dose: 200.0 mg/kg/injection, schedule: Q01DX001 (ip), vehicle: saline with Tween-80) is 95 % of control; the T/C (dose: 400.0 mg/kg/injection, schedule: Q01DX001 (ip), vehicle: saline with Tween-80) is 95 % of control.
Turning to `O=C(COc1cccc(Cl)c1)Nc1cccc(CN2C(=O)c3ccccc3C2=O)c1`, the T/C (dose: 50.0 mg/kg/injection, schedule: Q04DX003 (ip), vehicle: Klucel (hydroxypropylcellulose) (HPC)) was 96 % of control; the T/C under setting [7] is 98 % of control; the T/C under setting [8] was 95 % of control.
`O=C(COc1ccc(Cl)cc1Cl)NCCO`: the T/C is, setting by setting: under setting [7], 98 % of control; under setting [8], 97 % of control; under setting [9], 111 % of control.
On to `O=C(Nc1cccc([N+](=O)[O-])c1)c1ccc2c(c1)C(=O)OC2=O`, for which the T/C runs as follows: under setting [3], 95 % of control; under setting [4], 87 % of control; under setting [5], 93 % of control.
Consider `O=C(O)/C=C/c1cccc(O)c1`, for which the T/C reads like this: under setting [6], 98 % of control; under setting [7], 92 % of control; (dose: 200.0 mg/kg/injection, schedule: Q01DX009 (ip), vehicle: Klucel (hydroxypropylcellulose) (HPC)) 102 % of control; under setting [8], 97 % of control; (dose: 400.0 mg/kg/injection, schedule: Q01DX009 (ip), vehicle: Klucel (hydroxypropylcellulose) (HPC)) 97 % of control; under setting [9], 98 % of control.
